Literature values as cited in patent US20020051751A1, “Pharmaceuticals and apparatus providing diagnosis and selective tissue necrosis” (priority 1985, published 2002).

Tested on: DNA

Bleomycin
binding constant of Bleomycin to DNA: 10^6 | Bleomycin molecules bound per nucleotides (results from Kd of 10^6): one Bleomycin molecule bound per eight nucleotides
